Data published in patent US20240209004A1, “BORIC ACID DERIVATIVE ACTING AS Beta-LACTAMASE INHIBITOR” (TUOJIE BIOTECH (SHANGHAI) CO., LTD., priority 2021, published 2024).
Like-named read-outs stand apart in the source and are kept apart here.

Assays:
[1] = test system: cefepime-resistant Pseudomonas aeruginosa; test: MIC in combination with cefepime for drug-resistant bacteria (Test Example 2); assay type: cell-based
Method: (§1) The biosafety cabinet was sterilized with ultraviolet light for 30 min. Glycerol tubes were taken out of a −80° C. freezer, and streaks were gently formed in the glycerol tubes using inoculating loops. Bacteria were inoculated onto MHIIA solid plates. The plates were incubated overnight in a 37° C. incubator.
(§2) 30 μL of compound stock solution was added to column 1 of a 96-well v-bottom plate, and DMSO was added to columns 2-10. Subsequently, 15 μL was transferred from column 1 to column 2 using a pipette and well mixed gently, and then 15 μL of solution was transferred from column 2 to column 3; the serial dilution process proceeded to column 10 (200×β-lactamase inhibitor working solutions were prepared). The antibiotic was diluted with a corresponding solvent to form a 1.6 mg/mL solution.

[2] = test system: cefepime-resistant Klebsiella pneumoniae; test: as above; assay type: cell-based; details: for MIC: Klebsiella pneumoniae, with CPM 8 μg/mL
Method: as §1, §2

[3] = test system: cefepime-resistant Acinetobacter baumannii; test: as above; assay type: cell-based; details: for concentration for achieving a bacteriostatic effect where the CPM MIC is fixed at 8 μg/mL: with CPM 8 μg/mL
Method: as §1, §2

[4] = test system: cefepime-resistant Escherichia coli; test: as above; assay type: cell-based; details: for MIC: Escherichia coli, with CPM 8 μg/mL
Method: as §1, §2

[5] = test system: cefepime-resistant Klebsiella pneumoniae expressing different types of β-lactamases; test: microbe, parasite or virus in culture; assay type: cell-based; details: for MIC: Klebsiella pneumoniae; for MIC, Cefepime + compound (8 ug/ml): inhibitor at 8 ug/ml
Method: as §1
as §2, with “3:” for “3;”

[6] = Single intravenous administration exposure, pharmacokinetics (Test Example 4); assay type: in vivo, ICR mice; details: ICR mice, single intravenous injection, plasma; for AUC(0-t) / AUC(0-inf) / Cmax / Tmax: mouse, in vivo; for AUC(0-t): read-out: AUC0-t; for AUC(0-inf): read-out: AUCinf; for Cmax: read-out: Cmax; for Tmax: read-out: Tmax
Method: The solutions were prepared on the day of administration and stored at 4° C.
Single intravenous injections were administered to ICR mice, which were grouped as follows. Blood was collected from the saphenous vein or the fundus venous plexus at 0.083 h, 0.25 h, 0.5 h, 1 h, 2 h, 4 h, 6 h and 12 h after administration (about 0.1 mL/time point). A biological analysis method was developed to determine plasma concentrations at different time points, and related pharmacokinetic parameters were calculated.

[7] = summary in words of Test Example 2

O=C([O-])c1c2c(cc3c1O[B-](O)(O)[C@@H]1C[C@H]31)OCCO2.[Na+].[Na+] [Compound 1-1-Na]
MIC ([1]; read-out: concentration for achieving a bacteriostatic effect where the CPM MIC is fixed at 8 μg/mL, strain FDA-CDC AR-BANK#0246, with CPM 8 μg/mL): > 16 µg/mL | MIC ([1]; read-out: concentration for achieving a bacteriostatic effect where the CPM MIC is fixed at 8 μg/mL, strain FDA-CDC AR-BANK#0439, with CPM 8 μg/mL): > 16 µg/mL | MIC ([1]; read-out: concentration for achieving a bacteriostatic effect where the CPM MIC is fixed at 8 μg/mL, strain FDA-CDC AR-BANK#0441, with CPM 8 μg/mL): 8 µg/mL | MIC ([1]; read-out: concentration for achieving a bacteriostatic effect where the CPM MIC is fixed at 8 μg/mL, strain FDA-CDC AR-BANK#0444, with CPM 8 μg/mL): 16 µg/mL | MIC ([2]; read-out: concentration for achieving a bacteriostatic effect where the CPM MIC is fixed at 8 μg/mL, strain FDA-CDC AR-BANK#0003): 0.125 µg/mL | MIC ([2]; read-out: concentration for achieving a bacteriostatic effect where the CPM MIC is fixed at 8 μg/mL, strain FDA-CDC AR-BANK#0076): 0.25 µg/mL | MIC ([2]; read-out: concentration for achieving a bacteriostatic effect where the CPM MIC is fixed at 8 μg/mL, strain FDA-CDC AR-BANK#0080): 2 µg/mL | MIC ([2]; read-out: concentration for achieving a bacteriostatic effect where the CPM MIC is fixed at 8 μg/mL, strain FDA-CDC AR-BANK#0126): ≤ 0.0156 µg/mL | MIC ([2]; read-out: concentration for achieving a bacteriostatic effect where the CPM MIC is fixed at 8 μg/mL, strain FDA-CDC AR-BANK#0158): 2 µg/mL | restoring to cefepime antibacterial activity against cefepime-resistant Klebsiella pneumoniae [2, 7]: significantly restore to cefepime antibacterial activity | MIC ([3]; Acinetobacter baumannii, read-out: concentration for achieving a bacteriostatic effect where the CPM MIC is fixed at 8 μg/mL): > 16 µg/mL | concentration for achieving a bacteriostatic effect where the CPM MIC is fixed at 8 μg/mL ([3]; strain FDA-CDC AR-BANK#0035): >16 µg/mL | concentration for achieving a bacteriostatic effect where the CPM MIC is fixed at 8 μg/mL ([3]; strain FDA-CDC AR-BANK#0078): >16 µg/mL | MIC ([4]; read-out: concentration for achieving a bacteriostatic effect where the CPM MIC is fixed at 8 μg/mL, strain FDA-CDC AR-BANK#0055): 1 µg/mL | MIC ([4]; read-out: concentration for achieving a bacteriostatic effect where the CPM MIC is fixed at 8 μg/mL, strain FDA-CDC AR-BANK#0114): 0.0312 µg/mL | MIC ([4]; read-out: concentration for achieving a bacteriostatic effect where the CPM MIC is fixed at 8 μg/mL, strain FDA-CDC AR-BANK#0370): 1 µg/mL | MIC ([4]; read-out: concentration for achieving a bacteriostatic effect where the CPM MIC is fixed at 8 μg/mL, strain FDA-CDC AR-BANK#0371): ≤ 0.0156 µg/mL | restoring to cefepime antibacterial activity against cefepime-resistant Escherichia coli [4, 7]: significantly restore to cefepime antibacterial activity | MIC ([5]; ATCCBAA1705, read-out: MIC, single substance (1-1-Na, QPX7728, CPM), strain ATCC BAA-1705, KPC-2, TEM, SHV, Class A): > 128 µg/mL | MIC ([5]; ATCCBAA1898, read-out: MIC, single substance (1-1-Na, QPX7728, CPM), strain ATCC BAA-1898, KPC-2, Class A): > 128 µg/mL | MIC ([5]; ATCCBAA1899, read-out: MIC, single substance (1-1-Na, QPX7728, CPM), strain ATCC BAA-1899, KPC-2, Class A): 64 µg/mL | MIC ([5]; ATCCBAA2343, read-out: MIC, single substance (1-1-Na, QPX7728, CPM), strain ATCC BAA-2343, KPC, Class A): > 128 µg/mL | MIC ([5]; ATCCBAA2470, read-out: MIC, single substance (1-1-Na, QPX7728, CPM), strain ATCC BAA-2470, NDM-1, Class B): 64 µg/mL | MIC ([5]; read-out: MIC, single substance (1-1-Na, QPX7728, CPM), strain ARLG-1127 (Urine), KPC, KPC-3, TEM, TEM-1, Class A): > 128 µg/mL | MIC ([5]; read-out: MIC, single substance (1-1-Na, QPX7728, CPM), strain ARLG-1195, CTM-1 group, SHV, NDM, Class A, B): > 128 µg/mL | MIC ([5]; read-out: MIC, single substance (1-1-Na, QPX7728, CPM), strain ARLG-1196, CTM-1 group, SHV, NDM, TEM, Class A, B): 128 µg/mL | MIC, Cefepime + compound (8 ug/ml) ([5]; strain ARLG-1127 (Urine), KPC, KPC-3, TEM, TEM-1, Class A): 0.25 µg/mL | MIC, Cefepime + compound (8 ug/ml) ([5]; strain ARLG-1195, CTM-1 group, SHV, NDM, Class A, B): ≤0.125 µg/mL | MIC, Cefepime + compound (8 ug/ml) ([5]; strain ARLG-1196, CTM-1 group, SHV, NDM, TEM, Class A, B): ≤0.125 µg/mL | MIC, Cefepime + compound (8 ug/ml) ([5]; strain ATCC BAA-1705, KPC-2, TEM, SHV, Class A): <0.125 µg/mL | MIC, Cefepime + compound (8 ug/ml) ([5]; strain ATCC BAA-1898, KPC-2, Class A): <0.125 µg/mL | MIC, Cefepime + compound (8 ug/ml) ([5]; strain ATCC BAA-1899, KPC-2, Class A): ≤0.125 µg/mL | MIC, Cefepime + compound (8 ug/ml) ([5]; strain ATCC BAA-2343, KPC, Class A): 0.25 µg/mL | MIC, Cefepime + compound (8 ug/ml) ([5]; strain ATCC BAA-2470, NDM-1, Class B): ≤0.125 µg/mL | t½z ([6]; 10 mg/kg): 115 min | t½z ([6]; 100 mg/kg): 178 min | AUC(0-t) ([6]; 10 mg/kg): 211 µg·h/mL | AUC(0-inf) ([6]; 10 mg/kg): 213 µg·h/mL | Cmax ([6]; 10 mg/kg): 146 µg/mL | Tmax ([6]; 10 mg/kg): 4.98 min | AUC(0-t) ([6]; 100 mg/kg): 1400 µg·h/mL | AUC(0-inf) ([6]; 100 mg/kg): 1540 µg·h/mL | Cmax ([6]; 100 mg/kg): 607 µg/mL | Tmax ([6]; 100 mg/kg): 4.98 min
